Experimental data from patent US12702715B2, “Targeted RNA degradation allows precision repurposing of protein-targeted small molecule medicines to RNA” (University of Florida Research Foundation, Incorporated, priority 2020, dated 2026).
“Also recorded” adds a separate entry of the source.

Columns and labels:
[1] = test system: miR-21; test: RT-qPCR of mature miR-21 levels in MDA-MB-231 cells; format: cell-based, human; settings: for reduction of mature miR-21 levels: 1 μM; for mature miR-21 levels: MDA-MB-231, RT-qPCR
Method: Cell Culture. Cells were cultured at 37° C. and 5% CO2. […] For compound treatment, compound stocks either in DMSO or water were diluted in growth medium and added to cells for the indicated time. […] After transfection, the medium was replaced with growth medium containing the compound of interest, prepared as described above. The RNase L-targeting siRNA or a control siRNA was transfected with Lipofectamine RNAiMAX reagent (Invitrogen) per the manufacturer's protocol.
(§1) RNA Isolation and Quantitative Real-Time PCR (RT-qPCR). After treatment, total RNA was extracted and purified by using the Zymo Quick-RNA mini prep kit per the manufacturer's protocol. Reverse Transcription (RT) for mature miRNAs as well as pri- and pre-miR-21 was completed on 200 ng of RNA by using a miScript 11 RT kit (QIAGEN) according to manufacturer's protocol. RT of mRNAs was performed by using QScript kit (Quanta Bio). An Applied Biosystems QS5 384-well PCR system was used to complete qPCR experiments using Power Sybr Green Mater Mix (Life Technologies) as described previously^6.

[2] = test system: pre-miR-21; test: RT-qPCR of pre-miR-21 levels in MDA-MB-231 cells; format: cell-based, human; settings: for pre-miR-21 levels: MDA-MB-231, RT-qPCR
Method: Cell Culture. Cells were cultured at 37° C. and 5% CO2. MDA-MB-231 cells (HTB-26, ATCC) were cultured in RMPI 1640 medium with L-glutamine & 25 mM HEPES supplemented with 1× Antibiotic/Antimycotic solution (Corning) and 10% FBS. MCF-10A cells (CRL-10317, ATCC) were cultured in 1×DMEM/F12 50/50 with L-glutamine & 15 mM HEPES (Corning) supplemented with 20% FBS, 1× Antibiotic/Antimycotic solution, 20 ng/mL human epidermal growth factor (Pepro Tech, Inc.), 10 μg/mL insulin (Sigma-Aldrich), and […] hydrocortisone (Pfaltz & Bauer). For compound treatment, compound stocks either in DMSO or water were diluted in growth medium and added to cells for the indicated time. Plasmid DNA to overexpress pre-miR-21 in pcDNA 3.1 (Addgene 21114) or a plasmid DNA encoding the pre-miR-21 mutant (custom purchased from GenScript USA, Inc.) was transfected with jetPRIME per the manufacturer's protocol. After transfection, the medium was replaced with growth medium containing the compound of interest, prepared as described above. The RNase L-targeting siRNA or a control siRNA was transfected with Lipofectamine RNAiMAX reagent (Invitrogen) per the manufacturer's protocol.
as §1

[3] = test system: pre-miR-21 WT RNA; test: In vitro Chem-CLIP and C-Chem-CLIP, pre-miR-21 WT; format: binding, human
Method: In Vitro Chemical Cross-linking and Isolation by Pull Down (Chem-CLIP) and Competitive Chem-CLIP (C-Chem-CLIP). Growth medium [RMPI 1640 medium with L-glutamine & 25 mM HEPES (Corning)] was inactivated by heating at 95° C. to for 15 min and slowly cooling to room temperature at benchtop. Pre-miR-21 labeled with ^32P at the 5′-end (~10,000 counts) was folded in growth medium by heating at 95° C. for 1 min and slowly cooling to room temperature. To the samples was added Chem-CLIP probe 4 (1, 5, 20 or 100 μM) or negative control probe 5 (1, 5, 20 or 100 μM), and the mixtures were incubated at 37° C. for 1 h. The samples were then cross-linked by irradiation with 365 nm light for 10 min. The Chem-CLIP probe 4 or control probe 5, whether or not cross-linked to the RNA, was then clicked to disulfide biotin azide (10 mM in DMSO; 10 μL per sample; 1168-10, Click Chemistry Tools) by incubating in a solution containing 1×HEPES buffer (25 mM, pH 7), sodium ascorbate (10 μL/sample, 250 mM in H2O), CuSO4 (10 μL/sample, 50 mM in H2O), THPTA (10 μL/sample, 50 mM in H2O) for 2 h at 37° C. […] The radioactive signal from bound RNAs (on the beads) and unbound RNAs (from the wash steps) were measured by using a Beckman Coulter LS6500 Liquid Scintillation Counter. Enrichment of pre-miR-21 was calculated as previously described^6. […]

[4] = test system: PDCD4; test: PDCD4 Western blot in MDA-MB-231 cells; format: cell-based, human
Method: Western Blotting. MDA-MB-231 cells were plated in 6-well plates. When they reached ~50% confluency, they were treated with vehicle (DMSO) or 4. After 48 h, the medium was removed, and the cells were washed with 1×DPBS. The cells were harvested by trypsinization, and total protein was extracted with MPER (Mammalian Protein Extraction Reagent, Thermo Scientific) as previously described^6. Protein concentrations were determined by using a Pierce Micro BCA Protein Assay kit (Fisher Scientific). Approximately 10 μg of total protein from each sample obtained above was resolved on a SDS-polyacrylamide gel (10%), and the protein were transferred to a PVDF ([…]) membrane. After blocking the membrane in 1×TBST with 5% (w/v) nonfat milk for 60 min, the membrane was incubated with 1×TBST containing 5% milk and PDCD4 (Cell Signaling Technology, 9535S) primary antibody (1:1000 dilution) at 4° C. overnight. The membrane was washed with 1×TBST for 10 min three times and then incubated with 1:2000 anti-rabbit IgG horseradish-peroxidase secondary antibody conjugate (Cell Signaling Technology, 7074S) in 1× TBST containing 5% (w/v) milk for about 2 h. After washing with 1×TBST for 10 min three times, PDCD4 protein was detected by using SuperSignal West Pico Chemiluminescent Substrate (Pierce Biotechnology). After imaging, the membrane was stripped with 1× Stripping Buffer (200 mM glycine with 0.1% SDS, pH 2.2) for 120 min at RT, and β-actin level was detected as described for PDCD4 except using β-actin (Cell Signaling Technology, 3700S) primary antibody (1:5000 dilution). ImageJ software was used for quantification of the protein bands.

| Compound | reduction of mature miR-21 levels ([1]; MDA-MB-231) | decrease of mature miR-21 levels ([1]; 5 μM dose, MDA-MB-231) | mature miR-21 levels [1] | pre-miR-21 levels [2] | competition of cleavage of pre-miR-21 by RIBOTAC 2 ([2]; constant concentration of 2 (1 μM), increasing competitor) | competition of enrichment of pre-miR-21 by 4 ([3]; in vitro C-Chem-CLIP) | derepression of PDCD4 expression ([4]; 5 μM) | concentration giving a reduction of mature miR-21 similar to 5 μM of 1 ([1]; MDA-MB-231) | fold increase in potency / miR-21 inhibitory activity compared with 1 ([1]; MDA-MB-231) | cleavage of pre-miR-21 upon knock down of RNase L with an siRNA ([2]; MDA-MB-231) | PDCD4 expression ([4]; MDA-MB-231, 1 and 2 at 1 μM, LNA-21 at 100 nM) | fold more potent downstream effects than 1 ([4]; PTEN, PDCD4, invasion) | enrichment of 32P-labeled pre-miR-21 WT ([3]; 1, 5, 20 or 100 μM) |
| --- | --- | --- | --- | --- | --- | --- | --- | --- | --- | --- | --- | --- | --- |
| CN1CCN(c2ccc3nc(-c4c(N)c5c(F)cccc5[nH]c4=O)[nH]c3c2)CC1 [Compound 1, Dovitinib, reference compound] | not reduced | 32±4% | significantly reducing mature miR-21 levels; also recorded: reduced | increased; also recorded: enhanced | competed away cleavage | competed off | ~ 60% |  |  |  |  |  |  |
| CCOC(=O)C1=C(Nc2ccccc2)S/C(=C\c2ccc(OCCOCCOCCOCCNC(=O)NCCN3CCN(c4ccc5[nH]c(-c6c(N)c7c(F)cccc7[nH]c6=O)nc5c4)CC3)c(O)c2)C1=O [Compound 2, Ribotac-Dovitinib] | ~ 45±9% |  | reduced | decreased; also recorded: reduced |  |  |  | 200 nM | 25 fold | reduced; also recorded: repressed cleavage | derepressed | 10 fold |  |
| C#CCCC1(CCC(=O)NCCN2CCN(c3ccc4[nH]c(-c5c(N)c6c(F)cccc6[nH]c5=O)nc4c3)CC2)N=N1 [Compound 4] |  |  | decreases | increases |  |  |  |  |  |  |  |  | dose-dependently enriched |
